The values that follow come from US5164381A, “Pharmacologically active 1,5-diaryl-3-substituted pyrazoles and method for synthesizing the same” (Ortho Pharmaceutical Corporation, priority 1991, dated 1992).

Structures are written as SMILES. Counter-ions that a name gives are not always drawn.

The test system of one test is Lewis strain laboratory rats. Put plainly: In vivo alleviation of inflammation: polyarthritis (adjuvant, Mycobacterium butyricum) in rats, inhibition of paw volume increase. As to conditions: Rattus norvegicus, po, rat; read-out: ED50 (effective dose to obtain a 50% inhibition of inflammation). As for the experimental part: Polyarthritis was induced in Lewis strain laboratory rats (weight=about 200 grams) by injection of a suspension of Mycobacterium butyricum in mineral oil into the subplantar tissue of the mammal's hind paws. On day 10 after the injection, the rats were assigned to groups, and paw volumes and body weights were recorded. Paw volumes of the contralateral, uninjected hind paw were determined by mercury plethylsmography. Per oral (p.o.) dosing began and continued for five consecutive days thereafter. On day 14 after the initial injection, approximately four hours after the final dose was administered, paw volumes and body weights were recorded and quantitated.
Anti-inflammatory activity of the substituted pyrazole compounds is expressed as the percent inhibition of paw volume increase.
One may read the ED50 as the midpoint of the dose-response relation. With `COc1ccc(-n2nc(CCC(=O)N(C)OC(=O)CCC(=O)O)cc2-c2ccc(C)cc2)cc1` [Compound 130], the ED50 is 11.5 mg/kg.
On the same count and under the same terms, the figure for `COc1ccc(-n2nc(CCCN(O)C(=O)C(=O)NO)cc2-c2ccc(Cl)cc2)cc1` [Compound 158, N-[3-[5-(4-Chlorophenyl)-1-(4-methoxyphenyl)-3-pyrazolyl]propyl]-N,N'-dihydroxyoxamide] is 33.4 mg/kg; for `COc1ccc(-n2nc(CCC=O)cc2-c2ccc(Cl)cc2)cc1` [Compound 11, 3-[5-(4-Chlorophenyl)-1-(4-methoxyphenyl)-3-pyrazolyl] propanal] it is 2.6 mg/kg; for `COc1ccc(-n2nc(CCC(=O)N(C)O)cc2-c2ccc(C(F)(F)F)cc2)cc1` [Compound 79] it is 3.2 mg/kg.
In the case of `COc1ccc(-n2nc(CCCO)cc2-c2ccc(Cl)cc2)cc1` [Compound 2, 5-(4-Chlorophenyl)-3-(3-hydroxypropyl)-1-(4-methoxyphenyl) pyrazole], the ED50 came to 3.6 mg/kg.

The test is the same for the next values; noted with them: p.o., rat; monohydrate.
Regarding `COc1ccc(-n2nc(CCC(=O)O)cc2-c2ccc(Cl)cc2)cc1` [Compound 13, Sodium 3-[5-(4-chlorophenyl)-1-(4-methoxyphenyl)-3-pyrazoyl] propanoate monohydrate], the “ED50 (effective dose to obtain a 50% inhibition of inflammation)” value worked out at 1.8 mpk.

Still in this test, the particulars now being: po, 336 h; 10 mpk p.o., rat; read-out: % INH. p.o. (percentage inhibition of pad swelling).
With `COc1ccc(-n2nc(CCC(O)C(C)(C)C)cc2-c2ccc(Cl)cc2)cc1` (stereo not drawn) [Compound 179], the inhibition in vivo at 10 mg/kg worked out at 36%.
The same measure, in the same setting: under `CCC(CCc1cc(-c2ccc(Cl)cc2)n(-c2ccc(OC)cc2)n1)=NNc1nccs1` [Compound 175] stands 16%.
Take `COc1ccccc1-n1nc(CCC(=O)O)cc1-c1ccc(Cl)cc1` [Compound 103]: the inhibition in vivo at 10 mg/kg was 55%.
On the same count and under the same terms, the figure for `COc1ccc(-n2nc(CCC(=O)N(C)O)cc2-c2ccc(Cl)cc2)cc1` [Compound 3a, 3-[5-(4-Chlorophenyl)-1-(4-methoxyphenyl)-3-pyrazolyl] -N-hydroxy-N-methylpropanamide sodium salt monohydrate] is 65%.
Regarding `COc1ccc(-n2nc(CCC(=O)O)cc2-c2ccc(C)cc2)cc1` [Compound 105], the inhibition in vivo at 10 mg/kg amounted to 87%.
Still for that read-out and setting: the figure for `CCc1ccc(-c2cc(CCC(=O)N(C)O)nn2-c2ccc(OC)cc2)cc1` [Compound 119] is 24%; for `CCCCCCCCNC(=O)CCc1cc(-c2ccc(Cl)cc2)n(-c2ccc(OC)cc2)n1` [Compound 186] it is 37%.
For the compound `CCN(CC)C(=O)CCC(=O)ON(C)C(=O)CCc1cc(-c2ccc(Cl)cc2)n(-c2ccc(OC)cc2)n1` [Compound 137], the inhibition in vivo at 10 mg/kg came out at 54%.

Still in this test, the particulars now being: po, 336 h; 15 mpk p.o., rat; read-out: % INH. p.o. (percentage inhibition of pad swelling).
In the case of `COc1ccc(-n2nc(CCC(=O)NCC(=O)NO)cc2-c2ccc(Cl)cc2)cc1` [Compound 88], the inhibition in vivo at 15 mg/kg stood at 36%.
The same measure, in the same setting: under `COc1ccc(-n2nc(CCNC(=O)C(=O)NO)cc2-c2ccc(Cl)cc2)cc1` [Compound 165] stands 41%.
For `CCOC(=O)CNC(=O)CCc1cc(-c2ccc(Cl)cc2)n(-c2ccc(OC)cc2)n1` [Compound 87], the inhibition in vivo at 15 mg/kg was found to be 22%.
Same read-out and setting: under `COc1ccc(-n2nc(CCC(=O)NCC(=O)N(C)O)cc2-c2ccc(Cl)cc2)cc1` [Compound 89] stands 57%; under `COc1ccc(-n2nc(CCC(=O)N(C)O)cc2-c2ccccc2)cc1` [Compound 114], 5%.
With `CCOC(=O)C(CSC)NC(=O)CCc1cc(-c2ccc(Cl)cc2)n(-c2ccc(OC)cc2)n1` (stereo not drawn) [Compound 101], the inhibition in vivo at 15 mg/kg stood at 57%.
In the case of `COc1ccc(-n2nc(CCC(=O)N(O)C(C)C)cc2-c2ccc(Cl)cc2)cc1` [Compound 81, 3-[5-(4-chlorophenyl)-1-(4-methoxyphenyl)-3-pyrazolyl]-N-hydroxy-N-isopropylpropanamide], the inhibition in vivo at 15 mg/kg came out at 50%.
On the same count and under the same terms, the figure for `COc1ccc(-n2nc(CCC(=N)N(C)O)cc2-c2ccc(Cl)cc2)cc1` [Compound 185, N-Hydroxy-N-methyl-2-[5-(4-chlorophenyl)-1-(4-methoxyphenyl)-3-pyrazolyl]ethylcarboximidamide Monohydrate] is 5%; for `CCOC(=O)C(CS)NC(=O)CCc1cc(-c2ccc(Cl)cc2)n(-c2ccc(OC)cc2)n1` (stereo not drawn) [Compound 100] it is 58%.

The test is the same for the next values; noted with them: po, 336 h; 25 mpk p.o., rat; read-out: % INH. p.o. (percentage inhibition of pad swelling).
As to `COC(=O)c1ccc(/C=C/CCc2cc(-c3ccc(Cl)cc3)n(-c3ccc(OC)cc3)n2)cc1` [Compound 25, 3-[4-(4-Carbomethoxyphenyl)-3(E)-butenyl]-5-(4-chlorophenyl)-1-(4-methoxyphenyl) pyrazole], the inhibition in vivo at 25 mg/kg stood at 18%.
On the same count and under the same terms, under `CSc1ccc(-n2nc(CCCO)cc2-c2ccc(Cl)cc2)cc1` [Compound 47] stands 48%.
Still for that read-out and setting: the figure for `COc1ccc(-n2nc(CCC(=O)N(O)C(C)(C)C)cc2-c2ccc(Cl)cc2)cc1` [Compound 58, 3-[5-(4-chlorophenyl)-1-(4-methoxyphenyl)-3-pyrazolyl]-N-tert-butyl-N-hydroxypropanamide] is 47%; for `OCCCc1cc(-c2ccc(Cl)cc2)n(-c2ccc(Br)cc2)n1` [Compound 35, 1-(4-bromophenyl)-5-(4-chlorophenyl)-3-(3-hydroxypropyl) pyrazole] it is 65%.
For the compound `COc1ccc(-n2nc(CCC(=O)NO)cc2-c2ccc(Cl)cc2)cc1` [Compound 29, 3-[5-(4-Chlorophenyl)-1-(4-methoxyphenyl)-3-pyrazolyl]-N-hydroxypropanamide], the inhibition in vivo at 25 mg/kg was 91%.
For the compound `COc1ccc(-n2nc(CCC(N)=O)cc2-c2ccc(Cl)cc2)cc1` [Compound 31], the inhibition in vivo at 25 mg/kg was 75%.
Still for that read-out and setting: under `COc1ccc(-n2nc(CCC(=O)NCC(=O)O)cc2-c2ccc(Cl)cc2)cc1` [Compound 66, N-Carboxymethyl-3-[5-(4-chlorophenyl)-1-(4-methoxyphenyl)-3-pyrazolyl]propanamide] stands 62%; under `COc1ccc(-n2nc(CC/C=C\CCCC(=O)O)cc2-c2ccc(Cl)cc2)cc1` [Compound 32, Sodium 8-[5-(4-Chlorophenyl)-1-(4-methoxyphenyl)-3-pyrazolyl]-5(Z)-octenoate], 69%.
On the same count and under the same terms, under `COc1ccc(-n2nc(CCC(=O)N(C)O)cc2-c2ccc(F)cc2)cc1` [Compound 45, 3-[5-(4-Fluorophenyl)-1-(4-methoxyphenyl)-3-pyrazolyl]-N-hydroxy-N-methyl propanamide] stands 51%; under `COc1ccc(-n2nc(CCCOC(=O)CCc3cc(-c4ccc(Cl)cc4)n(-c4ccc(OC)cc4)n3)cc2-c2ccc(Cl)cc2)cc1` [Compound 16, 3-[5-(4-Chlorophenyl)-1-(4-methoxyphenyl)-3-pyrazolyl] propyl 3-[5-(4-Chlorophenyl)-1-(4-methoxyphenyl)-3-pyrazolyl] propionate], 82%.
Same read-out and setting: under `COc1ccc(-n2nc(CCC(=O)Nc3ccc(O)cc3)cc2-c2ccc(Cl)cc2)cc1` [Compound 34] stands 21%.

The same test, now with this note: po, 336 h; 30 mpk p.o., rat; read-out: % INH. p.o. (percentage inhibition of pad swelling).
For `CCCCCOc1ccc(-n2nc(CCCO)cc2-c2ccc(Cl)cc2)cc1` [Compound 51], the inhibition in vivo at 30 mg/kg stood at 6.4%.
On the same count and under the same terms, under `CCN(CC)OC(=O)CCc1cc(-c2ccc(Cl)cc2)n(-c2ccc(OC)cc2)n1` [Compound 102] stands 87%.

Still in this test, the particulars now being: po, 336 h; 40 mpk p.o., rat; read-out: % INH. p.o. (percentage inhibition of pad swelling).
Consider `COc1ccc(-n2nc(CCC(=O)NC3=NCCS3)cc2-c2ccc(Cl)cc2)cc1` [Compound 85], for which the inhibition in vivo at 40 mg/kg stood at 40%.
`COc1ccc(-n2nc(CC/C=C\CCCC(N)=O)cc2-c2ccc(Cl)cc2)cc1` [Compound 38]: the inhibition in vivo at 40 mg/kg was 40%.
For `CCOC(=O)CCc1cc(-c2ccc(Cl)cc2)n(-c2ccc(OCC)cc2)n1` [Compound 75], the inhibition in vivo at 40 mg/kg turned out to be 73%.
Turning to `COc1ccc(-n2nc(CCC(=O)O)cc2-c2ccc(Cl)cc2)cc1OC` [Compound 74], the inhibition in vivo at 40 mg/kg amounted to 17%.
Same read-out and setting: under `O=[N+]([O-])c1ccc(-n2nc(CCCO)cc2-c2ccc(Cl)cc2)cc1` [Compound 48] stands 40%.

Still in this test, the particulars now being: po, 336 h; 50 mpk p.o., rat; read-out: % INH. p.o. (percentage inhibition of pad swelling).
For `COc1ccccc1-n1nc(CCCO)cc1-c1ccc(Cl)cc1` [Compound 22], the inhibition in vivo at 50 mg/kg came out at 33%.
As for `OCCCc1cc(-c2ccc(Cl)cc2)n(-c2ccccc2)n1` [Compound 1], the inhibition in vivo at 50 mg/kg turned out to be 62%.
On the same count and under the same terms, under `OCCCc1cc(-c2ccccc2)n(-c2ccc(Cl)cc2)n1` [Compound 21] stands 52%.
On the same count and under the same terms, the figure for `COc1ccc(-n2nc(CCCO)cc2-c2ccccc2)cc1` [Compound 10] is 30%.

The test system of a further test is bronchospasm / LTB4. Nature of the test: Arachidonic acid-induced bronchospasm and LTB4 blood levels in anesthetized guinea pigs. The note with it: AA i.v. 10 mg/kg. It is filed as in vivo. As for the experimental part:
Intravenous administration of 10 mg/kg AA to anesthetized guinea pigs pretreated with indomethacin (10 mg/kg) and propranolol (0.1 mg/kg) results in a sustained bronchospasm which is associated with increased blood levels of LTB4. […] In the dog, intraarticular injection of rabbit anti-dog-dog IgG immune complexes into the knee joint results in an acute synovitis characterized by an influx of inflammatory cells into the joint space as well as an increase in synovial fluid levels of PGE2 and LTB4.
With `COc1ccc2c(c1)c(CC(=O)O)c(C)n2C(=O)c1ccc(Cl)cc1` [indomethacin], the “effect on LTB4 levels (in words)” value is given as “no effect” and the “effect on bronchospasm (in words)” value is “no effect”.

In a further test the test system is cyclooxygenase (CO).
Assay: not given
As to conditions: cited from earlier work.
Turning to `COc1ccc2c(c1)c(CC(=O)O)c(C)n2C(=O)c1ccc(Cl)cc1` [indomethacin], the “inhibition of cyclooxygenase enzyme by NSAIDs (in words)” value was “only inhibit the cyclooxygenase enzyme”.
